Experimental data from article PMC2820250 (Journal of the American Chemical Society, 2009).
Where a name gives a salt, the structure may show the parent alone.

Biological target: recombinant human BACE-1 (Homo sapiens, UniProt P56817)
Experiment: BACE-1 FRET peptide cleavage assay
Format: biochemical
Conditions: for IC50, inhibition of cleavage of FRET peptide by BACE-1: FRET peptide with Swedish variant, pH 4.5, 2 h, 25 °C, triplicate; for inhibitory activity against BACE-1 cleavage of FRET peptide, in words: qualitative statement

Sequence of recombinant human BACE-1 (P56817 46-501): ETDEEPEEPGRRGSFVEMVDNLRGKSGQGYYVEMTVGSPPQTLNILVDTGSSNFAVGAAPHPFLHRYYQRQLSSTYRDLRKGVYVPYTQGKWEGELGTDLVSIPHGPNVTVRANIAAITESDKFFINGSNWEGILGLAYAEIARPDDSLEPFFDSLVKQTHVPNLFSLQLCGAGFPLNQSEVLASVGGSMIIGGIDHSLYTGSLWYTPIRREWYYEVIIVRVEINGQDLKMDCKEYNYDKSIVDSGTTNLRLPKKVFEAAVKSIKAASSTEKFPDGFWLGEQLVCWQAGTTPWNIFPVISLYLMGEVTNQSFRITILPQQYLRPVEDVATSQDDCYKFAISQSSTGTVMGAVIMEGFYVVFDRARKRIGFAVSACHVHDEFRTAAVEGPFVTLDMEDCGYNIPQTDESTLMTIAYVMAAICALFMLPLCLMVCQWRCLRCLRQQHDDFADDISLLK

Row | Compound | IC50, inhibition of cleavage of FRET peptide by BACE-1 [µg/ml] | inhibitory activity against BACE-1 cleavage of FRET peptide, in words | reduction of potency relative to compound 83 (acetamido moieties instead of N-sulfates) [fold]
1 | 5-Aminopentyl [(α-L-idopyranosyluronate)-(1→4)-O-(2-acetamido-2-deoxy-6-O-sulfonate-α-D-glucopyranoside)-(1→4)-O-(2-O-sulfonato-α-L-idopyranosyl-uronate)]-(1→4)-2-deoxy-2-acetamido-6-O-sulfonate-α-D-glucopyranoside penta sodium salt [Compound 84] | >300 |  | 
2 | 5-Aminopentyl [(β-D-glucopyranosyluronate)-(1→4)-O-(2-acetamido-2-deoxy-6-O-sulfonato- α-D-glucopyranoside)-(1→4)-O-(2-O-sulfonato-α-L-idopyranosyluronate)]-(1→4)-2-deoxy-2-acetamido-6-O-sulfonate-α-D-glucopyranoside penta sodium salt [Compound 85] | 167 |  | 
3 | 5-Aminopentyl [(β-D-glucopyranosyluronate)-(1→4)-O-(2-deoxy-2-sulfamino-6-O-sulfonate-α-D-glucopyranoside)-(1→4)-O-(2-O-sulfonate-α-L-idopyranosyluronate)-(1→4)-2-deoxy-2-sulfoamino-6-O-sulfonate-α-D-glucopyranoside heptasodium salt [Compound 86] | >300 |  | 
4 | NCCCCCOC1OC(COS(=O)(=O)O)C(OC2OC(C(=O)O)C(OC3OC(COS(=O)(=O)O)C(OC4OC(C(=O)O)C(OC5OC(COS(=O)(=O)O)C(OC6OC(C(=O)O)C(O)C(O)C6O)C(O)C5NS(=O)(=O)O)C(O)C4O)C(O)C3NS(=O)(=O)O)C(O)C2O)C(O)C1NS(=O)(=O)O [Compound 69, 5-aminopentyl [(β-D-glucopyranosyluronate)-(1→4)-(2-deoxy-2-sulfoamino-6-O-sulfonato-α-D-glucopyranoside)-(1→4)-O-(α-L-idopyranosyluronate)-(1→4)-O-(2-deoxy-2-sulfoamino-6-O-sulfanate-α-D-glucopyranoside)-(1→4)-(β-D-glucopyranosyluronate)]-(1→4)-O-2-deoxy-N-sulfoamino-6-O-sulfonate-α-D-glucopyranoside nonasodium salt] | 64 |  | 
5 | CC(=O)N[C@H]1[C@@H](O[C@H]2[C@H](O)[C@@H](O)[C@H](O[C@H]3[C@H](O)[C@@H](NC(C)=O)[C@@H](OCCCCCN)O[C@@H]3COS(=O)(=O)[O-])O[C@@H]2C(=O)[O-])O[C@H](COS(=O)(=O)[O-])[C@@H](O[C@@H]2O[C@H](C(=O)[O-])[C@@H](O)[C@H](O)[C@H]2O)[C@@H]1O.[Na+].[Na+].[Na+].[Na+] [Compound 76] | 39 | modest activity | 
6 | NCCCCCO[C@H]1O[C@H](COS(=O)(=O)[O-])[C@@H](O[C@@H]2O[C@H](C(=O)[O-])[C@@H](O[C@H]3O[C@H](COS(=O)(=O)[O-])[C@@H](O[C@@H]4O[C@H](C(=O)[O-])[C@@H](O)[C@H](O)[C@H]4O)[C@H](O)[C@H]3NS(=O)(=O)[O-])[C@H](O)[C@H]2O)[C@H](O)[C@H]1NS(=O)(=O)[O-].[Na+].[Na+].[Na+].[Na+].[Na+].[Na+] [Compound 77] | 97 | modest activity | 
7 | CC(=O)N[C@H]1[C@@H](O[C@H]2[C@H](O)[C@@H](O)[C@H](O[C@H]3[C@H](O)[C@@H](NC(C)=O)[C@@H](OCCCCCN)O[C@@H]3COS(=O)(=O)[O-])O[C@H]2C(=O)[O-])O[C@H](COS(=O)(=O)[O-])[C@@H](O[C@@H]2O[C@H](C(=O)[O-])[C@@H](O)[C@H](O)[C@H]2O)[C@@H]1O.[Na+].[Na+].[Na+].[Na+] [Compound 78] | >300 |  | 
8 | NCCCCCO[C@H]1O[C@H](COS(=O)(=O)[O-])[C@@H](O[C@@H]2O[C@@H](C(=O)[O-])[C@@H](O[C@H]3O[C@H](COS(=O)(=O)[O-])[C@@H](O[C@@H]4O[C@H](C(=O)[O-])[C@@H](O)[C@H](O)[C@H]4O)[C@H](O)[C@H]3NS(=O)(=O)[O-])[C@H](O)[C@H]2O)[C@H](O)[C@H]1NS(=O)(=O)[O-].[Na+].[Na+].[Na+].[Na+].[Na+].[Na+] [Compound 79] | 240 |  | 
9 | CC(=O)N[C@H]1[C@@H](O[C@H]2[C@H](O)[C@@H](O)[C@H](O[C@H]3[C@H](O)[C@@H](NC(C)=O)[C@@H](OCCCCCN)O[C@@H]3COS(=O)(=O)[O-])O[C@@H]2C(=O)[O-])O[C@H](COS(=O)(=O)[O-])[C@@H](O[C@@H]2O[C@@H](C(=O)[O-])[C@@H](O)[C@H](O)[C@H]2O)[C@@H]1O.[Na+].[Na+].[Na+].[Na+] [Compound 80] | 104 |  | 
10 | NCCCCCO[C@H]1O[C@H](COS(=O)(=O)[O-])[C@@H](O[C@@H]2O[C@H](C(=O)[O-])[C@@H](O[C@H]3O[C@H](COS(=O)(=O)[O-])[C@@H](O[C@@H]4O[C@@H](C(=O)[O-])[C@@H](O)[C@H](O)[C@H]4O)[C@H](O)[C@H]3NS(=O)(=O)[O-])[C@H](O)[C@H]2O)[C@H](O)[C@H]1NS(=O)(=O)[O-].[Na+].[Na+].[Na+].[Na+].[Na+].[Na+] [Compound 81, 5-aminopentyl [(L-α-idopyranosyluronate)-(1→4)-O-(2-deoxy-2-sulfoamino-6-O-sulfonate-α-D-glucopyranoside)-(1→4)-O-(β-D-glucopyranosyluronate)]-(1→4)-2-deoxy-2-sulfoamino-6-O-sulfonate-α-D-glucopyranoside hexasodium salt] | 290 |  | 
11 | CC(=O)N[C@H]1[C@@H](O[C@H]2[C@H](O)[C@@H](O)[C@H](O[C@H]3[C@H](O)[C@@H](NC(C)=O)[C@@H](OCCCCCN)O[C@@H]3COS(=O)(=O)[O-])O[C@H]2C(=O)[O-])O[C@H](COS(=O)(=O)[O-])[C@@H](O[C@@H]2O[C@@H](C(=O)[O-])[C@@H](O)[C@H](O)[C@H]2O)[C@@H]1O.[Na+].[Na+].[Na+].[Na+] [Compound 82] | 35 | modest activity | 10
12 | NCCCCCO[C@H]1O[C@H](COS(=O)(=O)[O-])[C@@H](O[C@@H]2O[C@@H](C(=O)[O-])[C@@H](O[C@H]3O[C@H](COS(=O)(=O)[O-])[C@@H](O[C@@H]4O[C@@H](C(=O)[O-])[C@@H](O)[C@H](O)[C@H]4O)[C@H](O)[C@H]3NS(=O)(=O)[O-])[C@H](O)[C@H]2O)[C@H](O)[C@H]1NS(=O)(=O)[O-].[Na+].[Na+].[Na+].[Na+].[Na+].[Na+] [Compound 83] | 4.6 | relatively high potency | 
